This passage reports Activity results from ChEMBL document CHEMBL3045938, “Methionine-induced phytoalexin production in rice leaves” (2000).

Format in all cases: functional, organism-based
Test [1] has as its system Oryza sativa. As to the kind of experiment: Induction of disease resistance in Oryza sativa Nipponbare (rice) assessed as increase in sakuranetin level in press-injured leaves at 0.1% after 48 hr by HPLC-MS-MS analysis.
The subject of test [2] is Oryza sativa. The test can be described thus: Induction of disease resistance in Oryza sativa Nipponbare (rice) assessed as increase in jasmonic acid level in press-injured leaves at 0.5 mM after 1 to 2 hr by HPLC-MS-MS analysis relative to control.
Test [3] relates to Oryza sativa. As to the kind of experiment: Induction of disease resistance in Oryza sativa Nipponbare (rice) assessed as increase in jasmonic acid level in press-injured leaves at 0.5 mM pretreated with water 24 hr prior to compound treatment measured after 6 hr by HPLC-MS-MS analysis relative to control.
Test [4] relates to Oryza sativa. The test can be described thus: Induction of disease resistance in Oryza sativa Nipponbare (rice) assessed as increase in sakuranetin level in press-injured leaves at 0.5 mM pretreated with water 24 hr prior to compound treatment measured after 8 to 10 hr by HPLC-MS-MS analysis relative to control.
Test [5] has as its system Oryza sativa. As to the kind of experiment: Induction of disease resistance in Oryza sativa Nipponbare (rice) assessed as increase in momilactone level in uninjured leaves at 0.5 mM pretreated with water 24 hr prior to compound treatment measured after 8 to 10 hr by HPLC-MS-MS analysis relative to control.
Test [6] relates to Oryza sativa. As to the kind of experiment: Induction of disease resistance in Oryza sativa Nipponbare (rice) assessed as increase in momilactone level in press-injured leaves at 0.5 mM pretreated with water 24 hr prior to compound treatment measured after 8 to 10 hr by HPLC-MS-MS analysis relative to control.
Test [7] deals with Oryza sativa. As to the kind of experiment: Induction of disease resistance in Oryza sativa Nipponbare (rice) assessed as increase in sakuranetin level in uninjured leaves at 0.5 mM pretreated with water 24 hr prior to compound treatment measured after 8 to 10 hr by HPLC-MS-MS analysis relative to control.
Test [8] deals with Oryza sativa. The test can be described thus: Induction of disease resistance in Oryza sativa Nipponbare (rice) assessed as increase in momilactone level in press-injured leaves at 10 mM after 48 hr by HPLC-MS-MS analysis.
In test [9] the test system is Oryza sativa. The test can be described thus: Induction of disease resistance in Oryza sativa Nipponbare (rice) assessed as increase in sakuranetin level in press-injured leaves at 10 mM after 48 hr by HPLC-MS-MS analysis.

Active and inactive are the calls of the source. The calls are words filed in the database; no cut-off is given here.

Turning to `C[S+](CC[C@H](N)C(=O)[O-])C[C@H]1O[C@@H](n2cnc3c(N)ncnc32)[C@H](O)[C@@H]1O` (stereo not given in full), the result in the test with Oryza sativa [1] was inactive.
On to `N[C@@H](Cc1ccccc1)C(=O)O`, for which the outcome with Oryza sativa [1] was inactive.
Take CUPRIC CHLORIDE: the result with Oryza sativa [2], in the test on Oryza sativa [5] and in the test on Oryza sativa [7] was inactive. Moreover, the result with Oryza sativa [3], with Oryza sativa [4] and in the test with Oryza sativa [6] was Active.
Turning to `O=P(O)(O)CCCl`, in the test on Oryza sativa [8], the result was inactive. The result with Oryza sativa [9] was Active.
